Experimental data as given in ChEMBL document CHEMBL1144179, “Molecular modeling aided design of nicotinic acid receptor GPR109A agonists” (Bioorg Med Chem Lett, 2008).

Tests used:
[1] = molecular target: Hydroxycarboxylic acid receptor 2 (Homo sapiens) (UniProt Q8TDS4); test: Displacement of [3H]nicotinic acid from human GPR109A receptor expressed in CHO-K1 cells at 2.5 uM; format: cell-based
[2] = molecular target: Hydroxycarboxylic acid receptor 2 (Homo sapiens) (UniProt Q8TDS4); test: Displacement of [3H]nicotinic acid from human GPR109A receptor expressed in CHO-K1 cells at 25 uM; format: cell-based
[3] = test system: Mus musculus; test: Induction of vasodilation in mouse assessed as arbitrary units from vasodilation AUC curve at 100 mg/kg; format: functional
[4] = Cmax in mouse; format: ADME, organism-based; details: in vivo
[5] = Plasma clearance in mouse; format: ADME, organism-based
[6] = Volume of distribution at steady state in mouse; format: ADME, organism-based; details: in vivo, read-out: Vdss
[7] = Oral bioavailability in mouse; format: ADME, organism-based; details: in vivo
[8] = Half life in mouse; format: ADME, organism-based; details: in vivo

O=C(CCc1ccccc1)Nc1ccccc1C(=O)O
Activity [1]: 88%
Activity [2]: 52%

O=C(COc1ccccc1)Nc1ccccc1C(=O)O
Activity [1]: 78%
Activity [2]: 40%

COc1ccc(OCC(=O)Nc2ccccc2C(=O)O)cc1
Activity [1]: 69%
Activity [2]: 33%

O=C(O)c1cccnc1 [NIACIN]
Activity [3]: 707

O=C(CCc1ccc2cc(O)ccc2c1)Nc1ccccc1C(=O)O
Activity [3]: 59
Cmax [4]: 6.6 µM
clearance [5]: 6.2 mL/min/kg
Vd [6]: 0.7 L/kg
bioavailability [7]: 55%
half-life [8]: 3.2 h
